Test results as given in patent publication US8343536B2, “Biofilm-inhibiting medical products” (Cook Biotech Incorporated, priority 2007, dated 2013).

Test system: mice
Assay: Mouse subcutaneous implant method, in vivo angiogenesis and tolerability of BisEDT coated SIS (Example 7)
Conditions: 10 or 100 μg/cm^2 on SIS, 3 weeks
Experimental: The Example was performed to compare the in vivo angiogenic response to SIS compared to 2 levels of BisEDT coated SIS. The model used to detect in vivo angiogenesis was the mouse subcutaneous implant method as generally described by Heeschen et al., Nat. Med. […]; 7:833-9.
BisEDT was obtained from Microbion, Inc. as previously described. All SIS based grafts were made from 4-layer lyophilized sheets as described in the previous Examples. Sample groups consisted of this material coated with 10 μg/cm^2 BisEDT or 100 μg/cm^2 BisEDT. Each material was cut into ten 15 mm discs. Nylon filters with 0.22 μm pores were sewn on to the top and bottom of each disc. Low temperature ethylene oxide sterilization was used for each sample.
Samples were implanted subcutaneously into the dorsal flanks of mice. After anesthesia using Ketamine (87 mg/kg) and Xylazine (13 mg/kg), a small incision was made on the posterior neck of the mouse and a dorsal subcutaneous cavity was created using blunt dissection with hemostats. This was followed by sample placement and closure of the incision with 4 interrupted stitches of 5-0 suture. Six mice per group underwent disc implantation. The implant remained in the mice for a period of 3 weeks followed by probing for capillary formation.
Mice were sacrificed using a double dose of anesthesia to ensure intact flow in vasculature. While the heart was still beating, the chest cavity was exposed, vena cava severed, and 10 ml of heparized saline injected into the left ventricle using a 23 ga butterfly infusion set to exsanguinate the mouse. After transferring syringes (while maintaining infusion needle in left ventricle), 4 ml of a fluorescent microsphere (yellow-green, 0.1 μm diameter, Molecular Probes, F-8803) suspension (1:20 dilution of stock suspension) was injected through the left ventricle resulting in perfusion of the entire vasculature. Care was taken to ensure no bubbles were introduced during the injections, as bubbles will cause micro-emboli obstructing consistent perfusion. […]

## bismuth-1,2-ethanedithiol [BisEDT]
  Angiogenic potential of coated SIS: neither level of BisEDT (10 or 100 μg/cm^2) coated onto the SIS affected the angiogenic potential
  Local toxicity at explant: no visual evidence of local toxicity at explant
  Systemic toxicity: no observed symptoms of systemic toxicity
